Test results published in patent US10004739B2, “Methods for treating cancer by inhibiting FGFR3/TACC3 fusion protein” (Astellas Pharma Inc., priority 2012, dated 2018).

Key:
[1] = tested on: FGFR3-TACC3_v2 expression/NIH3T3 cells; assay: Anchorage-independent cell proliferation, spheroid plate, CellTiter-Glo; settings: Mus musculus, NIH3T3, 96 h, read-out: growth inhibition rate (%), v2
Experimental: (§4) The FGFR3-TACC3_v1 expression/NIH3T3 cells were seeded in a 96-well spheroid plate (Sumilon Cell-Tight Spheroid 96U; SUMITOMO BAKELITE CO., LTD.) with D-MEM containing 10% fetal bovine serum, such that the cell count in each well became 1×10^3. Moreover, as a positive control, a well added only with the medium was prepared. […] As a negative control, DMSO as a vehicle of the compound was added thereto at the same concentration (0.1%) as set at the time of adding the compound. Thereafter, the cells were cultured for 4 days at 37° C. in the presence of 5% CO2, and a reagent for cell count measurement (CellTiter-Glo™ Luminescent Cell Viability Assay; Promega Corporation) was added thereto. The resultant was stirred for 20 minutes, and the cell count was measured using a luminometer.
(§5) Moreover, the respective compounds were added such that the final concentration thereof became 100 nM, 10 nM, and 1 nM.

[2] = tested on: FGFR3-TACC3_v1 (N-FLAG) fusion polypeptide; assay: In vitro kinase activity of FGFR3-TACC3_v1 (N-FLAG) fusion polypeptide (HTRF KinEASE-TK, peptide substrate); assay type: biochemical, human; settings: ATP 100 μM
[3] = tested on: FGFR3-TACC3_v3 expression/NIH3T3 cells (tumors); assay: Anti-tumorigenic activity in nude mice bearing subcutaneous tumors; assay type: in vivo; settings: 30 mg/kg orally once a day for 11 days
From the text: (§1) Cg-Foxn1Nu/Crlcrlj (Nu/Nu) nude mice (Charles River Laboratories, Japan) by means of subcutaneous injection performed in the back of the mice. Three days after the inoculation, AZD4547 and BGJ398 which are FGFR3-TACC3 fusion polypeptide inhibitors were started to be administered. For the test, 4 to 5 mice were assigned to each of the vehicle group and the compound group, AZD4547 and BGJ398 were suspended in a vehicle composed of 0.5% methyl cellulose (Shin-Etsu Chemical Co., Ltd.)/99.5% distilled water, and each of the compounds was orally administered at a dosage of 30 mg/kg. The administration was performed once a day for 11 days, and the body weight of mice and a tumor diameter were measured every 2 or 3 days. A tumor volume was calculated using the following formula. [Tumor volume (mm^3)]=[major axis of tumor (mm)]×[minor axis of tumor (mm)]^2×0.5

[4] = tested on: FGFR3-TACC3_v1 expression/NIH3T3 cells (tumors); assay: as above; assay type: in vivo; settings: 30 mg/kg orally once a day for 11 days
From the text: as §1

[5] = tested on: FGFR3-TACC3_v2 expression/NIH3T3 cells (tumors); assay: as above; assay type: in vivo; settings: 30 mg/kg orally once a day for 11 days
From the text: as §1

[6] = tested on: FGFR3-TACC3_v3 (N-FLAG) fusion polypeptide; assay: In vitro kinase activity of FGFR3-TACC3_v3 (N-FLAG) fusion polypeptide (HTRF KinEASE-TK, peptide substrate); assay type: biochemical, human; settings: ATP 100 μM
RT-112 cells = assay: Anchorage-independent proliferation of RT-112 bladder cancer cell line, spheroid plate, CellTiter-Glo; assay type: cell-based; settings: Homo sapiens, RT-112, 120 h; final concentration 100 nM; Example 16: 2×10^3 cells per well, 5 days; read-out: growth inhibition rate (%), RT-112
Experimental: Moreover, as a positive control, a well added only with the medium was prepared. […] As a negative control, DMSO as a vehicle of the compound was added thereto at the same concentration (0.1%) at the time of adding the compound. Thereafter, the cells were cultured for 5 days at 37° C. in the presence of 5% CO2, and a reagent for cell count measurement (CellTiter-Glo™ Luminescent Cell Viability Assay; Promega Corporation) was added thereto. The resultant was stirred for 20 minutes, and the cell count was measured using a luminometer.
as §5

FGFR3-TACC3_v2 = target: T1, FGFR3-TACC3_v2 (Homo sapiens, UniProt P22607, F384L); assay: Kinase inhibition in tumor: phosphorylated FGFR3/total FGFR3 by ELISA; assay type: in vivo, nude mice; settings: 4 hours after the final administration; dosing as Example 13
T1 construct: in order to express a full length of ORF of FGFR3-TACC3_v2 as a protein; expressed in transfected cells; host or cells: NIH3T3 cells infected with FGFR3-TACC3_v2/pMXs-puro retrovirus, inoculated into nude mice
Experimental: (§2) For the test, 5 mice were assigned to each of the vehicle group and the compound group, and 4 hours after the final administration, tumors were extracted by dissection. Thereafter, by using a lysis solution (Cell Lysis Buffer; Cell Signaling Technology, Inc., Phosphatase Inhibitor Cocktail; Thermo Fisher Scientific Inc., Complete; Roche, Ltd.), protein extracts of the tumors were rapidly prepared, and the total FGFR3 level and a phosphorylated FGFR3 level of the tumors were measured using an ELISA kit (R&D Systems). ELISA was performed according to the attached procedure manual, but detection was performed in a different way in which the chemiluminescence detection is conducted using a chemiluminescent reagent (BM chemiluminescence ELISA substrate; Roche, Ltd.) and a luminometer (ARVO; PerkinElmer Inc.).
(§3) A level obtained by correcting the phosphorylated FGFR3 level by using the total FGFR3 level (phosphorylated FGFR3 level/total FGFR3 level) was taken as a phosphorylation level.

FGFR3-TACC3_v3 = target: T2, FGFR3-TACC3_v3 (Homo sapiens, UniProt P22607); assay: as above; assay type: in vivo, nude mice; settings: 4 hours after the final administration; dosing as Example 13
T2 construct: in order to express a full length of ORF of FGFR3-TACC3_v3 as a protein; expressed in transfected cells; host or cells: NIH3T3 cells infected with FGFR3-TACC3_v3/pMXs-puro retrovirus, inoculated into nude mice
Experimental: as §2, §3

[7] = target: T3, FGFR3-TACC3 fusion polypeptide v1 (Homo sapiens, UniProt P22607); assay: as above; assay type: in vivo, nude mice; settings: 4 hours after the final administration; dosing as Example 13
T3 construct: expressed in transfected cells; host or cells: NIH3T3 cells infected with FGFR3-TACC3_v1/pMXs-puro retrovirus, inoculated into nude mice
Experimental: as §2, §3

[8] = tested on: FGFR3-TACC3_v2 (N-FLAG) fusion polypeptide; assay: In vitro kinase activity of FGFR3-TACC3_v2 (N-FLAG) fusion polypeptide (HTRF KinEASE-TK, peptide substrate); assay type: biochemical, human; settings: ATP 100 μM
[9] = tested on: FGFR3-TACC3_v3 expression/NIH3T3 cells; assay: Anchorage-independent cell proliferation, spheroid plate, CellTiter-Glo; settings: Mus musculus, NIH3T3, 96 h, read-out: growth inhibition rate (%), v3
Experimental: as §4, §5

[10] = tested on: FGFR3-TACC3_v1 expression/NIH3T3 cells; assay: as above; settings: Mus musculus, NIH3T3, 96 h, read-out: growth inhibition rate (%), v1
Experimental: as §4, §5

[11] = tested on: cells expressing FGFR3-TACC3 fusion gene; settings: reported in Science 2012; 337:1231-5; cited from earlier work

Row | Compound | inhibition at 0.1 µM [1] [%] | Inhibition against peptide substrate FGFR3-TACC3 v1 ([2]; final concentration 1 nM) [%] | Inhibition against peptide substrate FGFR3-TACC3 v1 ([2]; final concentration 10 nM) [%] | Inhibition against peptide substrate FGFR3-TACC3 v1 ([2]; final concentration 100 nM) [%] | inhibition of growth of tumors (tumor volume) [3] [%] | inhibition of proliferation of tumors (tumor volume) [4] [%] | inhibition of proliferation of tumors (tumor volume) [5] [%] | Inhibition against peptide substrate FGFR3-TACC3 v3 ([6]; final concentration 1 nM) [%] | Inhibition against peptide substrate FGFR3-TACC3 v3 ([6]; final concentration 10 nM) [%] | Inhibition against peptide substrate FGFR3-TACC3 v3 ([6]; final concentration 100 nM) [%] | inhibition at 0.1 µM (RT-112 cells) [%] | reduction of tyrosine auto-phosphorylation in the tumor compared to the vehicle group (FGFR3-TACC3_v2) [%] | reduction of tyrosine auto-phosphorylation in the tumor compared to the vehicle group (FGFR3-TACC3_v3) [%] | reduction of tyrosine auto-phosphorylation in the tumor compared to the vehicle group [7] [%] | Inhibition against peptide substrate FGFR3-TACC3 v2 ([8]; final concentration 1 nM) [%] | Inhibition against peptide substrate FGFR3-TACC3 v2 ([8]; final concentration 10 nM) [%] | Inhibition against peptide substrate FGFR3-TACC3 v2 ([8]; final concentration 100 nM) [%] | inhibition at 0.1 µM [9] [%] | inhibition at 0.1 µM [10] [%] | proliferation of cells expressing FGFR3-TACC3 fusion gene [11]
1 | CCN1CCN(c2ccc(Nc3cc(N(C)C(=O)Nc4c(Cl)c(OC)cc(OC)c4Cl)ncn3)cc2)CC1 [BGJ398] | 90 | 26 | 47 | 58 | 88 | 90 | 90 | 13 | 38 | 75 | 90 | 66 | 85 | 77 | 8 | 44 | 79 | 87 | 92 | inhibited the proliferation
2 | COc1cc(CCc2cc(NC(=O)c3ccc(N4C[C@@H](C)N[C@@H](C)C4)cc3)[nH]n2)cc(OC)c1 [AZD4547, N-{5-[2-(3,5-dimethoxyphenyl)ethyl]-2H-pyrazol-3-yl}-4-[(3R,5S)-3,5-dimethylpiperazin-1-yl]benzamide] | 60 | 13 | 46 | 69 | 73 | 51 | 61 | 9 | 52 | 74 | 90 | 54 | 78 | 58 | 16 | 50 | 77 | 51 | 74 | inhibited the proliferation
